The values below come from ChEMBL document CHEMBL1201862, “PubChem BioAssay data set” (2004).

Each structure is given as a SMILES string. Activity calls are given as the source filed them.

Assay [1] concerns the target Luciferin 4-monooxygenase (Photinus pyralis, UniProt P08659). The assay can be described thus: Counter Screen for Luciferase-based Assay Positives. [Related pubchem assays: 620, 618, 411 ].
For assay [2], the target named is Sphingosine 1-phosphate receptor 1 (Homo sapiens, UniProt P21453). The assay can be described thus: Fluorescence-based counterscreen assay for S1P4 agonists: Cell-based dose response high throughput screening assay to identify agonists of the Sphingosine 1-Phosphate Receptor 1 (S1P1). [Related pubchem assays (depositor defined):AID1509, AID1523, AID1801, AID463107, AID463118, AID463119, AID463122, AID463123, AID463129, AID463225, AID504400, AID504460]. In kind it is functional.
Sequence of Sphingosine 1-phosphate receptor 1 (P21453 whole entry): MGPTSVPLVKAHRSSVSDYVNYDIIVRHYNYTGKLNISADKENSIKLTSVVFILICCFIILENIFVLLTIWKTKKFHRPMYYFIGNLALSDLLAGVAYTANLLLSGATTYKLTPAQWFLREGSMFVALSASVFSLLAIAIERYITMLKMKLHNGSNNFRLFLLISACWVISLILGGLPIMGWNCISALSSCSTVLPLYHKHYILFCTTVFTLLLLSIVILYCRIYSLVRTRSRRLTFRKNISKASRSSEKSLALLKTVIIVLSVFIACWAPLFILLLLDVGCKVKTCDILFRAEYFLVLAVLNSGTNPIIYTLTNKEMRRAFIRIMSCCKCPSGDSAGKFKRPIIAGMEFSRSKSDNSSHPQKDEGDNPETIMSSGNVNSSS

The nature of assay [3]: viability of HCT116 lacking mutant beta-catenin – cell-based, human colon tumor, dose response (AID 1045).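 Further: HCT116 colon tumor cells with beta catenin knocked out; cells exposed to compound for 60 hours.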 In kind it is functional.
Assay [4] in a line: viability of PTEN-deleted HCT116 cells – cell-based, HCT116 PTEN knockout, dose response (AID 1047).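 Further: HCT116 colon tumor cells with PTEN knocked out; cells exposed to compound for 60 hours before readout; potency for loss of cell viability measured by luminescence.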 In kind it is functional.
The next assay concerns HT-1080. Nature of the assay: HT1080 cell viability loss – fluorescence readout (AID 620). As to conditions: Homo sapiens. In kind it is functional, cell-based.
Assay [5] has as its target Sphingosine 1-phosphate receptor 4 (Homo sapiens, UniProt O95977). The assay can be described thus: Fluorescence dose response cell-based high throughput screening assay for agonists of the Sphingosine 1-Phosphate Receptor 4 (S1P4). [Related pubchem assays: 1509 (Primary screen.), 1523 (Confirmation screen in triplicates.)]. In kind it is functional.
Assay [6] concerns the target Sphingosine 1-phosphate receptor 2 (Homo sapiens, UniProt O95136). Nature of the assay: Dose Response Cell Based Assay for Agonists of the S1P2 Receptor. [Related pubchem assays: 729, 736, 843 ]. In kind it is functional.
Assay [7] addresses T1, Tyrosine-protein phosphatase non-receptor type 22 (Homo sapiens, UniProt Q9Y2R2).
T1 sequence (Q9Y2R2 whole entry): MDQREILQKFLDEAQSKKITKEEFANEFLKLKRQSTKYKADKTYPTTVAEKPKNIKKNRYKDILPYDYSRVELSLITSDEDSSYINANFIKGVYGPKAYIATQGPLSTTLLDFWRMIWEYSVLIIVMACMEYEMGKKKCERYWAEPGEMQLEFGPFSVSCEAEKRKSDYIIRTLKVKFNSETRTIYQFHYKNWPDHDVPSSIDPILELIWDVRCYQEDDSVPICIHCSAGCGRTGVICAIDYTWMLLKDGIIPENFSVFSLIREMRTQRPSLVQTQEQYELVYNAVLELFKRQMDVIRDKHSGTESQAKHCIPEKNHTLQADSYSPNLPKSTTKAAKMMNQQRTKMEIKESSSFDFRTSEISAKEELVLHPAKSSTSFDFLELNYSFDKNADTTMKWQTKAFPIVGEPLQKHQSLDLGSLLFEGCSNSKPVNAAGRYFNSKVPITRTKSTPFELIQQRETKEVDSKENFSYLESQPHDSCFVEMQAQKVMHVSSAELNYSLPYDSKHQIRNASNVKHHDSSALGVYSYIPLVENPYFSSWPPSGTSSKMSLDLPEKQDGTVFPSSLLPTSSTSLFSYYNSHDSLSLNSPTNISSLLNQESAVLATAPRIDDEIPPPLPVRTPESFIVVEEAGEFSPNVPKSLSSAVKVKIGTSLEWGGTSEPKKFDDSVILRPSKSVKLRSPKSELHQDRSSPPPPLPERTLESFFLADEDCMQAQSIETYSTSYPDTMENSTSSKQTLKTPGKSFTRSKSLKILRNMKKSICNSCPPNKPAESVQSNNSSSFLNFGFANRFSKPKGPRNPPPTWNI
In kind it is functional.

Assay [8] has as its target T1, Tyrosine-protein phosphatase non-receptor type 22. In kind it is functional. This is another data set of the same source.
Assay [9] concerns the target T2, Tyrosine-protein phosphatase non-receptor type 7 (Homo sapiens, UniProt P35236).
T2 sequence (P35236 whole entry): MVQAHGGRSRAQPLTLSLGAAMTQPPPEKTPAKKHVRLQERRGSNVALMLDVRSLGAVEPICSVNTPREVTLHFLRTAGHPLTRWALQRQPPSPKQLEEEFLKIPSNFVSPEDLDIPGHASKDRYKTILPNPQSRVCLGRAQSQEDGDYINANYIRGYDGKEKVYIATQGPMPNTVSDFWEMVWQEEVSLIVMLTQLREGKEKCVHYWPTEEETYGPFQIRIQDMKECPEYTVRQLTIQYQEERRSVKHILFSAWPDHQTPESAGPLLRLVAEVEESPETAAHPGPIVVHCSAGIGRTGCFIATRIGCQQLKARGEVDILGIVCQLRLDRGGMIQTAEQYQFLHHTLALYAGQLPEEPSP
In kind it is functional.

The target of assay [10] is T3, RNA-binding protein pos-1 (Caenorhabditis elegans, UniProt G5EF15).
T3 sequence (G5EF15 whole entry): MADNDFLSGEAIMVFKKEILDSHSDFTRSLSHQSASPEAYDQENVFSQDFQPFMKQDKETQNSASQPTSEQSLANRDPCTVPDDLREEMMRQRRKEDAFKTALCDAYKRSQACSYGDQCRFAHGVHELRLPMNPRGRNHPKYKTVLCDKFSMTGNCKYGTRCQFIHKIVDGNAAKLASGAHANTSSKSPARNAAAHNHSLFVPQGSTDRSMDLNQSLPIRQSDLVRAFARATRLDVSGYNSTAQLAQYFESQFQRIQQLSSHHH
The assay can be described thus: disruptors of C. elegans POS-1 RNA interaction – biochemical, fluorescence polarization, dose response (AID 1964).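 Further: purified POS-1 fused to maltose binding protein made in E. coli; potency of compounds blocking POS-1 binding to fluorescent RNA.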

Assay [11] concerns the target T4, Alkaline phosphatase, tissue-nonspecific isozyme (Homo sapiens, UniProt P05186).
T4 sequence (P05186 whole entry): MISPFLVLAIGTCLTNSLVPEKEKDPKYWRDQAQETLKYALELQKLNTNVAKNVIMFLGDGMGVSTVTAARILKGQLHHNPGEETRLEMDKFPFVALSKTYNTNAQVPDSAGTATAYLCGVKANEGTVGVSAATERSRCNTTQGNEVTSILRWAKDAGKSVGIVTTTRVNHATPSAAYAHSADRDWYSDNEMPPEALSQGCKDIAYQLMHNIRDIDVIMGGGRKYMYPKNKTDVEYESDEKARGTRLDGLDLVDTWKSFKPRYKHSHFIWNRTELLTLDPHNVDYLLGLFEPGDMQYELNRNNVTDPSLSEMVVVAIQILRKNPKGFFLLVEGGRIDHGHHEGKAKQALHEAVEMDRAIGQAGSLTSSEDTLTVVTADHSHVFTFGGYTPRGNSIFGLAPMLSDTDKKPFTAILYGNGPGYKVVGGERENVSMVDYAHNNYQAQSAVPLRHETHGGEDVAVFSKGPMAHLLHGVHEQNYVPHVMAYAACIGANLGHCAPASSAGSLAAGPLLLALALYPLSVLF
The assay can be described thus: TNAP enzyme inhibition by screening hits, dose response, selectivity assay for mouse IAP inhibitor project, biochemical, human TNAP, uHTS hits (AID 488906). In kind it is functional.

Assay [12] deals with Intestinal-type alkaline phosphatase (Homo sapiens, UniProt P09923). The assay can be described thus: inhibition of human intestinal alkaline phosphatase – biochemical, dose response (AID 488876). In kind it is functional.
Sequence of Intestinal-type alkaline phosphatase (Homo sapiens, UniProt P09923) (P09923 whole entry): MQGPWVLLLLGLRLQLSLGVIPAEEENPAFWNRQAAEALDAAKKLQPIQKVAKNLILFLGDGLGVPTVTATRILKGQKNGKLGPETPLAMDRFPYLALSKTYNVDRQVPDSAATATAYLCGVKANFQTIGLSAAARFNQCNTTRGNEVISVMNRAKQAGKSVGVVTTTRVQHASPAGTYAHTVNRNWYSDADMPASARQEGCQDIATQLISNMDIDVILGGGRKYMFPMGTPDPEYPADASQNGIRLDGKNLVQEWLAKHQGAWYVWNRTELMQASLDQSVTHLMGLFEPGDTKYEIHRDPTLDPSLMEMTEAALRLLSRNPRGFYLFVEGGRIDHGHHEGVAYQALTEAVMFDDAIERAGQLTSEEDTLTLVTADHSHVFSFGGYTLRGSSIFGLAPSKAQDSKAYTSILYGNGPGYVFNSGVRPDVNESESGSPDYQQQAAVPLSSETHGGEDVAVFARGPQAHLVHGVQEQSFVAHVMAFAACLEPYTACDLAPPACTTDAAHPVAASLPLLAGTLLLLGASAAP
The target of assay [13] is T5, Polyadenylate-binding protein 1 (Homo sapiens, UniProt P11940). Nature of the assay: MLLE binding blockers, Cy5 peptide tracer – biochemical, fluorescence polarization, Cy5-PAM2 peptide, secondary, miRNA deadenylation inhibitor project, dose response (AID 602260). As to conditions: read-out: IC50_Mean. In kind it is functional.
T5 sequence (P11940 whole entry): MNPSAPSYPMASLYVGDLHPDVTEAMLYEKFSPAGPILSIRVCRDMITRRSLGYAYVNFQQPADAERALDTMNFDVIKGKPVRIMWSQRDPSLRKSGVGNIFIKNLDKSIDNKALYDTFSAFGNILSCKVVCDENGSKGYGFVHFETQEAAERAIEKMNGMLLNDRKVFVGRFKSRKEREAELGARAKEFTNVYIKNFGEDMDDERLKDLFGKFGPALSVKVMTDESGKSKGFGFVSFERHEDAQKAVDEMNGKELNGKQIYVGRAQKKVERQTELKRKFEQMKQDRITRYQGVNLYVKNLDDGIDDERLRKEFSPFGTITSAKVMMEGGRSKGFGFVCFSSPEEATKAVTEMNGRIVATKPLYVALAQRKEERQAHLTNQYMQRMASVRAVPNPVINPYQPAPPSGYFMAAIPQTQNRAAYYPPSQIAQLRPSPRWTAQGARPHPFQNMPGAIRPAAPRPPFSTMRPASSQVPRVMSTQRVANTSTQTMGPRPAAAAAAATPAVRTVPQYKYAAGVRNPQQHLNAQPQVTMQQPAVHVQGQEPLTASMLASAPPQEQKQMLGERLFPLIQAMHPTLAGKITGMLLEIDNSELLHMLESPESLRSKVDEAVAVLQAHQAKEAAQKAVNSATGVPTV
For assay [14], the target named is T6, Zinc finger protein mex-5 (Caenorhabditis elegans, UniProt Q9XUB2).
T6 sequence (Q9XUB2 whole entry): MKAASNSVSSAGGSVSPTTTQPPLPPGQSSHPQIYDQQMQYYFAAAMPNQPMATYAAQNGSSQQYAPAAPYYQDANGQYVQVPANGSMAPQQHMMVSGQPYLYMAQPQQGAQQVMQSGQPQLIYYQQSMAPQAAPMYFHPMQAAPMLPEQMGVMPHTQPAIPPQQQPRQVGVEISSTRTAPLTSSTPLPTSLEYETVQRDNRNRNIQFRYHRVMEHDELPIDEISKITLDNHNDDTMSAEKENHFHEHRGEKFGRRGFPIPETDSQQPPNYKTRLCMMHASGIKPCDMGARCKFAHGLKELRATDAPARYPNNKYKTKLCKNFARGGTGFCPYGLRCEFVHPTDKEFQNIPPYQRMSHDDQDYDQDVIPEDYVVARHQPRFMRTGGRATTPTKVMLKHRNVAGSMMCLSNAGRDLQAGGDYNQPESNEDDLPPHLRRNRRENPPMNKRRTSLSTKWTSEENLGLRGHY
The assay can be described thus: potency of MEX-5 RNA-binding blockers – biochemical, C. elegans, fluorescence polarization, dose response (AID 1960).

Assay [15] concerns the target T5, Polyadenylate-binding protein 1. The assay can be described thus: MLLE domain peptide-binding blockers, IC50 – biochemical, fluorescence polarization, FITC-PAM2 peptide, dose response (AID 602259). In kind it is functional. As to conditions: read-out: IC50_Mean.
The target in assay [16] is Intestinal-type alkaline phosphatase (Mus musculus, UniProt P24822). Nature of the assay: PubChem AID 488785. In kind it is functional.
Sequence of Intestinal-type alkaline phosphatase (Mus musculus, UniProt P24822) (P24822 whole entry): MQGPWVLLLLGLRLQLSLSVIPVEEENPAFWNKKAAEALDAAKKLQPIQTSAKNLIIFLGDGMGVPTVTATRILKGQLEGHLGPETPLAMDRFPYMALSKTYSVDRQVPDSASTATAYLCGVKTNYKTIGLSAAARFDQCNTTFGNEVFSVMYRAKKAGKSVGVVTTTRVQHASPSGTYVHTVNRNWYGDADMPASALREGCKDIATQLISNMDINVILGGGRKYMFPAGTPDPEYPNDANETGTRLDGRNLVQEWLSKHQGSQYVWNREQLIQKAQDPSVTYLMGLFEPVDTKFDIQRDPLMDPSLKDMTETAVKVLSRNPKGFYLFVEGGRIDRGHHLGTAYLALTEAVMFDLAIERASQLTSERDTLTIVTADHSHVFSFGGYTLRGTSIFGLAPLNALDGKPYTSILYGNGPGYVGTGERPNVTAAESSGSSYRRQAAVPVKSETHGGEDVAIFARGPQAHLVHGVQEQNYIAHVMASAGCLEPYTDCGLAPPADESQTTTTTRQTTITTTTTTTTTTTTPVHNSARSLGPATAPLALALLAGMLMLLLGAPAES
The next assay concerns the target Aspartyl aminopeptidase (Plasmodium falciparum 3D7, UniProt Q8I2J3). The assay can be described thus: Counterscreen for inhibitors of M1 and M17 aminopeptidases: QFRET-based biochemical high throughput dose response assay for inhibitors of the Plasmodium falciparum M18 Aspartyl Aminopeptidase (PFM18AAP). [Related PubChem assays: 1619 (Screening assay (M17LAP inhibitors).), 1445 (Screening assay (M1AAP inhibitors).)].

The next assay concerns the target Procathepsin L (Homo sapiens, UniProt P07711). The assay can be described thus: CTSL1 protease inhibition – biochemical, QFRET, 1536-well, counter-screen for M1/M17 aminopeptidase inhibitor project, dose response (AID 2214).
In the next assay the target is T7, Aminopeptidase N (Plasmodium falciparum FcB1/Columbia, UniProt O96935).
T7 sequence (O96935 whole entry): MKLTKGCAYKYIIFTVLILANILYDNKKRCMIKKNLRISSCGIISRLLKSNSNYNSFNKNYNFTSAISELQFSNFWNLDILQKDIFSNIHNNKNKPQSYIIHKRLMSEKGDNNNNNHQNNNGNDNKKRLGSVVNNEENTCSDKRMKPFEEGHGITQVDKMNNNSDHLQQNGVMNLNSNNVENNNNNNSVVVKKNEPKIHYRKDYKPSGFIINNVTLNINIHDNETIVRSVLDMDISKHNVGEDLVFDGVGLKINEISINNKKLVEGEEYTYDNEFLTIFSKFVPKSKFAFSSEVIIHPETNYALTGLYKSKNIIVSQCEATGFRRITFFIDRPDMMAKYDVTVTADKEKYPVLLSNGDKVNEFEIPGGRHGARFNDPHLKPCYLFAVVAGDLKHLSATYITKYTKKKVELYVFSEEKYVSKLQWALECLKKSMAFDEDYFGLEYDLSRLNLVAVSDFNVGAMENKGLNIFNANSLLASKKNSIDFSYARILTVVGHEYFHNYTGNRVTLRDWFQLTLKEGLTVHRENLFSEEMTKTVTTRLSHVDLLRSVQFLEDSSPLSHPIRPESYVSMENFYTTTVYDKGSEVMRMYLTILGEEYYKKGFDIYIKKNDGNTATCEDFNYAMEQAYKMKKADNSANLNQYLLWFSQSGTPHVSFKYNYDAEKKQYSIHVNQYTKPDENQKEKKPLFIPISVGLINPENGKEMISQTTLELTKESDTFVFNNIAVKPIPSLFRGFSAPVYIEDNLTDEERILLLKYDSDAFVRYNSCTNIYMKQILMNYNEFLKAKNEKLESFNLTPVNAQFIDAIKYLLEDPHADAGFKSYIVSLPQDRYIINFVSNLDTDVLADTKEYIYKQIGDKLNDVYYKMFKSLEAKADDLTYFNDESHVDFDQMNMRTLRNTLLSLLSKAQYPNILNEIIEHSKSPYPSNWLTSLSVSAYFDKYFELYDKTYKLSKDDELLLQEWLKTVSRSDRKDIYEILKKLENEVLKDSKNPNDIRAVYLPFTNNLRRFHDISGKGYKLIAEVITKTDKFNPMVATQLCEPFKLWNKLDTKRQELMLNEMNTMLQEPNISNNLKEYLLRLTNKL
The assay can be described thus: malaria alanyl aminopeptidase activity blockers – biochemical, fluorogenic H-Leu-NHMec substrate, 1536-well (AID 1445). More on the design: species or system Plasmodium falciparum 3D7, 3D7.

Sequence of Luciferin 4-monooxygenase (P08659 whole entry): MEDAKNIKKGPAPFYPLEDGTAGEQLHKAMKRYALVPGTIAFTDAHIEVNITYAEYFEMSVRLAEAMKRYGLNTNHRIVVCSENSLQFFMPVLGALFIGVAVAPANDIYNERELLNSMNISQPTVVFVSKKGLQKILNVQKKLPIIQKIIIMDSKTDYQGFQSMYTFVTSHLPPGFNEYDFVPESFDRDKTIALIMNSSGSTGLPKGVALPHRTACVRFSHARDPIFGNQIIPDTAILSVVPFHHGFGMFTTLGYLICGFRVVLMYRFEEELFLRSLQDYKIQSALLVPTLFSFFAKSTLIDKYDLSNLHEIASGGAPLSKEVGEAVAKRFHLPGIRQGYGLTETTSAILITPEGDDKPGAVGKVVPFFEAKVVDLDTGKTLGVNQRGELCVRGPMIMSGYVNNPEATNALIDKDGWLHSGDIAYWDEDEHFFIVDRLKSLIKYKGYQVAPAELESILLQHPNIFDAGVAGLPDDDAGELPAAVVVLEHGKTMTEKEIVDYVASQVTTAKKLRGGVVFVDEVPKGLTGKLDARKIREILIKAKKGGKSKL
Sequence of Aspartyl aminopeptidase (Q8I2J3 whole entry): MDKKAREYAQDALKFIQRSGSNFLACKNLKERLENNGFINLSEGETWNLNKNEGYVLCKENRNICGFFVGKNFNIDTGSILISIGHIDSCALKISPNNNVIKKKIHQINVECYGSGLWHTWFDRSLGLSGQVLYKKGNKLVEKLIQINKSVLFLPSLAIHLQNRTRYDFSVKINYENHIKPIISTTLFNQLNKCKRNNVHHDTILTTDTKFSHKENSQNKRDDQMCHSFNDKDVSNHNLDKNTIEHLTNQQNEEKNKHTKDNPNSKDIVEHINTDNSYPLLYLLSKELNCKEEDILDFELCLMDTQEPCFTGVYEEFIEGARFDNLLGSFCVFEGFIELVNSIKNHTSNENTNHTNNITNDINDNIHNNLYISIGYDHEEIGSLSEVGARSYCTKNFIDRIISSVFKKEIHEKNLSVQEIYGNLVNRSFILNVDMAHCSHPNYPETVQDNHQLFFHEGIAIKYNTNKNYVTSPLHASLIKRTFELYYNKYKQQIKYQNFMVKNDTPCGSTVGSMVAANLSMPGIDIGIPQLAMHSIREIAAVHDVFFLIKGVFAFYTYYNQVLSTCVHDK
Sequence of Sphingosine 1-phosphate receptor 2 (O95136 whole entry): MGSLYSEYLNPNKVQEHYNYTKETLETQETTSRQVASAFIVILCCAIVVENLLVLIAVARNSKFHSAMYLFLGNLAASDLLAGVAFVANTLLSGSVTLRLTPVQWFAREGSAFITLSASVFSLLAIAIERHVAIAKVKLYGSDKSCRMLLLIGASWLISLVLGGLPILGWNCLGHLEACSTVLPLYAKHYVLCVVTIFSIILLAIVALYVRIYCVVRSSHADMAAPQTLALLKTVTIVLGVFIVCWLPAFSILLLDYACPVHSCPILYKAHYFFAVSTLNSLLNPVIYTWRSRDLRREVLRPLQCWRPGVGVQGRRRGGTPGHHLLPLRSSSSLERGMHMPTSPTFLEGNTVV
Sequence of Procathepsin L (P07711 whole entry): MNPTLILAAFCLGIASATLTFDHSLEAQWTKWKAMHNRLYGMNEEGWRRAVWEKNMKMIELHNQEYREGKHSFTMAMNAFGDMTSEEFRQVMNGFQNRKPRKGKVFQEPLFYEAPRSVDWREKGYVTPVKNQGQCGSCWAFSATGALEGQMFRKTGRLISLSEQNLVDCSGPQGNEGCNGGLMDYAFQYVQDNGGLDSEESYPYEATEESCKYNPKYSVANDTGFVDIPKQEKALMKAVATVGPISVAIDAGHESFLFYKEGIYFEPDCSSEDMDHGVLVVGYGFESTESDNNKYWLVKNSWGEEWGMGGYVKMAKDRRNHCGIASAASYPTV
Sequence of Sphingosine 1-phosphate receptor 4 (O95977 whole entry): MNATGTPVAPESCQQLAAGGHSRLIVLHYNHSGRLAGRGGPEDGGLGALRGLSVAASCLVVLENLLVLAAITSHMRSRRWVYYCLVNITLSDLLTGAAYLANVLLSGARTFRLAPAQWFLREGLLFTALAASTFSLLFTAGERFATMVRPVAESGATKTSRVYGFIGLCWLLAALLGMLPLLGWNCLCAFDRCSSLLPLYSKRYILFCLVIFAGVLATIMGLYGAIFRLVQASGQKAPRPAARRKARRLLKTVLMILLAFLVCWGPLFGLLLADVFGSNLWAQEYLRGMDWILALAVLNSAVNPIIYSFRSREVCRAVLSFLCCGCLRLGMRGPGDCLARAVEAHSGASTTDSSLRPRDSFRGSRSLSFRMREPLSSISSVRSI

As to `CN(C)CCCNS(=O)(=O)c1ccc(N2CCC(c3ccc(Cl)cc3)=N2)cc1`, the EC50 in assay [1] was 1.04 µM (active); in assay [2], > 0.614 µM (active); in assay [3], 4.67 µM (active); in [4], 4.53 µM (active); with HT-1080 it was 14.4 µM (active); in assay [5] it was > 0.614 µM (active). Also, in assay [6], the EC50 is 0.338 µM (active).
As for `CSCC[C@H](NC(=O)Nc1cccc(C(F)(F)F)c1)C(=O)O`, the IC50 in assay [7], in assay [8] and in assay [9] was > 79.4 µM (inactive) each time.
As for `CCN1C(=O)/C(=C2\SC(=S)N(NC(=O)c3ccccc3O)C2=O)c2ccccc21`, the values for the EC50 in assay [10] and in assay [14] were 7.47 µM (active) and 5.31 µM (active), respectively. In addition, the IC50 was > 100 µM (inactive) in assay [11]; > 100 µM (inactive) in [12]; > 66 µM (inactive) in assay [13]; > 66 µM (inactive) in [15]; 53.5 µM (active) in assay [16]; 25 µM (not active) against Aspartyl aminopeptidase. Also, the figures for the IC50 at Procathepsin L and at Aminopeptidase N were > 59.6 µM (not active) and 9.43 µM (active), respectively.
